Laboratory results taken from US5780242A, “Bioassay for the screening of ION channel active molecules” (priority 1995, dated 1998).
“Also recorded” adds a separate entry of the source. Counter-ions that a name gives are not always drawn. Like-named read-outs stand apart in the source and are kept apart here.

Experiments:
[1] = local anesthesia; cited from earlier work
[2] = cited from earlier work
[3] = Circular dichroism blank run of the drug alone; assay type: physicochemical; settings: for ellipticity of drug alone: 215 nm to 230 nm / 222 nm; for molar ellipticity [θ] of drug alone, 30° C.: no enzyme, 222 nm
Protocol: (§1) A baseline of the solution is obtained using 222 nm without removing the cell after a run is begun to allow for thermal stabilization. Prior to adding the drug to the enzyme, a blank run consisting only of the drug at the same concentration used in the enzyme study is made. To obtain control data, temperature changes of 5 degrees centigrade in the neuroreceptor solution alone are made using a Forma water bath. Then the drug is added to a sample of the purified neuroreceptor solution, and the stabilizing effect of the drug on the temperature-related conformational changes is noted. All temperature runs are allowed to equilibrate for one hour before data is collected.
(§2) Again CD spectra were obtained using the above thermal apparatus over the range of 230 nm to 215 nm. A baseline of the enzyme solution was obtained using 300 nm to 285 nm without removing the cell after a run was begun. Prior to adding the drug to the enzyme, a blank run consisting only of the drug at the same concentration used in the enzyme study was made. To obtain control data, temperature changes in the enzyme solution alone were made using a Forma water bath. Then the drug was added to another enzyme solution with the same protein concentration which came from the stock solution, and temperature effects were noted. All temperature runs were allowed to equilibrate for one hour before data were collected.

[4] = test system: AChE preparation (sodium channel neuroreceptor); assay: Circular dichroism bioassay at 222 nm: temperature-dependent helix-coil transition of the AChE/neuroreceptor preparation in presence of drug; assay type: binding, bovine; settings: for molar ellipticity [θ] at 222 nm, 30° C. / molar ellipticity [θ] at 222 nm, 35° C. / molar ellipticity [θ] at 222 nm, 38° C. / stabilization of the alpha helix / prevention of the helical transition between 30° C. and 35° C.: pH 7.0; for temperature needed to elicit the helix-coil transition in presence of drug: versus preparation without drug; for stabilization of the alpha helix / prevention of the helical transition between 30° C. and 35° C.: fresh preparations
Protocol: as §1
All studies are made in 1 mm, 5 mm and 2 mm cells using a Jouan Dichrograph II at 1×10^-5 O.D./mm sensitivity. The sample solution consists of 30 mM Na2 HPO4, pH 7.0, and the enzyme. Protein concentration is determined empirically and then measured by the Lowry method after the run. Lowry, et al., J Biol Chem, 193: 265-275 (1951). Samples are taken directly from G-200 fractions or DEAE-Cellulose fractions previously dialyzed against 30 mM Na2 HPO4, pH 7.0.
Thermal studies are carried out in the 10 mm cell. Care must be taken not to misplace the cell in the cell holder to avoid spectral changes. Additionally, since the absorption is affected by pressure, the ORD cell's glass stopper must be gently seated. for the thermal runs of Prep A, a micro-thermometer is used to record the temperature in the ORD cell after each spectral recording.
The routine consists of beginning a CD spectral scan followed by running each activity blank at that temperature using 3 minute reading intervals. The next CD spectral scan is made after recording the temperature in the ORD cell. The data recorded consists of duplicates of CD spectra with cell temperatures varying 5 degrees centigrade at 222 nm.
Pilocarpine, reagent grade, was used at 1.33×10^-6 M in the sample solutions.
A buffer solution of 20 mM Na2 HPO4, pH 7.0, gives minimal absorption problems in the range 300 nm to 195 nm. Enzyme solutions contain from 21 μg/ml to 31 μ/ml of protein in buffer. Total ORD cell volume is 3.0 ml.
A buffer solution of 30 Na2 HPO4, pH 7.0,gave minimal absorption problems in the range 300 nm to 195 nm. Enzyme solutions contained from 21 μg/ml to 31 μg/ml of protein in buffer. Total ORD cell volume was 3.0 ml. Drugs were added to ORD cells in 0.002 ml volumes in order to minimize dilution effects. A Roussel-Jouan Dichrograph 11 sensitive to 1×10^-5 dichroic absorption unit per recording mm was used with a 10 mm, strain free, quartz ORD cell (Pyrocell, New Jersey, U.S.A.).
as §2
Data for CD was expressed so that experimental values could be compared with published helix composition values. All graphs and raw data were expressed as molar el lipticity [.THETA.] based on mean residue molecular weight because the true molecular weight of AChE has not been established for the brain enzyme.

AChE = AChE (Bos taurus, UniProt P23795); assay: Salt study: effect of MgSO4 on AChE of Prep E (AChE activity and CD helix); assay type: biochemical, bovine
Chain of AChE (P23795 31-613): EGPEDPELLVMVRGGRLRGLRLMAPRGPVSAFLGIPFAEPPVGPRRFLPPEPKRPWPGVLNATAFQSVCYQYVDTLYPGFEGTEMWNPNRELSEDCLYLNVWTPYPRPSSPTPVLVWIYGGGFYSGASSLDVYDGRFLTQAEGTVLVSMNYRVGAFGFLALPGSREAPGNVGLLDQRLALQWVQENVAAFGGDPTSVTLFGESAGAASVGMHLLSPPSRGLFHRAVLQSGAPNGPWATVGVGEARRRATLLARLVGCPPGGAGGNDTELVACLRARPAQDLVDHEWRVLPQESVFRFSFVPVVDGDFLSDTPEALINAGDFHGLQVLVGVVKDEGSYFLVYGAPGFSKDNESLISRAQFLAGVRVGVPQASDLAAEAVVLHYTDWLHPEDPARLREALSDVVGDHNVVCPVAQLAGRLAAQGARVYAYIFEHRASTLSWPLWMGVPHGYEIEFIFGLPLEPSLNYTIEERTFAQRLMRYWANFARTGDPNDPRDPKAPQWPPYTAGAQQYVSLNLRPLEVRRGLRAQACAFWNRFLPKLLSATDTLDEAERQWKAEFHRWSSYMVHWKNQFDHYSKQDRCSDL
Protocol: An AChE preparation (Prep E) was made using the scheme of S. L. Chan, supra "Purification of Beef Brain Acetylcholinesterase" Proceedings of the Western Pharmacology Society, 13:43-47, 1970. The AChE in 0.4M NaCl/[…] Na2 HPO4 was lyophilized and resuspended in 2.5 ml deionized water. The CD spectrum was made, and activity was checked qualitatively. The sample was dialyzed against 100 mM MgSO4 for 12 hours. AChE activity was qualitatively checked with CD. The sample was then redialyzed against 0.4M NaCl/30 mM Na2 HPO4 for 12 hours, checked for AChE activity and for CD absorption.
Activity of AChE was determined at 25° C.-30° C. and pH 8.0 by the spectrophotometric method of Ellman et al (Biochemical Pharmacology, 7:88-95 (1961). Measurements were made in the Hitachi Perkin-Elmer Model 139 spectrophotometer at 412 nm and 0.1 nm slit. One unit of AChE activity was defined as 1 μM of ATC (acetyl thiocholine iodide,Sigma) hydrolyzed per hour at 25° C. Specific activity is expressed as μmoles ATC hydrolyzed/ mg protein/ hour.

[5] = mice; cited from earlier work
[6] = rats; cited from earlier work
[7] = 7 Day old AChE with drug, 222 nm
[8] = AChE Prep B (7 Days Later) plus drug 1.33×10^-6 M, 222 nm
[9] = AChE Prep B (7 Days Later) plus drug 1.33×10^-6 M
[10] = AChE Prep B (7 Days Later), 222 nm
[11] = Fresh AChE (Prep C) plus drug 1.33×10^-6 M, 222 nm
[12] = Fresh AChE (Prep C) plus drug 1.33×10^-6 M
[13] = Fresh AChE (Prep B) plus drug 1.33×10^-6 M

## Cc1cccc(C)c1NC(=O)C1CCCCN1C (stereo not drawn) [mepivacaine]
[1]
  duration of effective action: 2 to 3 h
  onset of action: rapid

## CCN(CC)CC(=O)Nc1c(C)cccc1C [Lidocaine, Lidocaine hydrochloride monohydrate]
[1]
  duration of effective action: 1 to 2 h
[2]; compared with procaine
  allergic reactions: fewer known allergic reactions than procaine
[2]; in vivo
  side effect: drowsiness
[3]
  ellipticity of drug alone: no ellipticity
[4]; [7]
  % Loss of Helix (30° C. to 35° C.): 16.8%
[4]; [8]
  [θ]30 - [θ]35: 600
[4]; [9]
  molar ellipticity [θ] at 222 nm, 30° C.: -3,590
[4]; [10]
  Difference of Lidocaine from Above AChE, 30° C.: +540
  Difference of Lidocaine from Above AChE, 35° C.: +480
[4]; [11]
  [θ]30 - [θ]35: 100
  [θ]38 - [θ]35: 770
[4]; [12]
  molar ellipticity [θ] at 222 nm, 30° C.: -5,560
  molar ellipticity [θ] at 222 nm, 35° C.: -5,500
  molar ellipticity [θ] at 222 nm, 38° C.: -4,830
[4]; Fresh AChE with drug, 222 nm
  % Loss of Helix (30° C. to 35° C.): 1.8%
  % Loss of Helix (35° C. to 40° C.): 13.6%
[4]
  temperature needed to elicit the helix-coil transition in presence of drug: Higher temperatures were necessary

## CCCNC(C)C(=O)Nc1ccccc1C (stereo not drawn) [prilocaine]
[1]
  duration of effective action: 2 to 3 h
[2]; doses greater than 400 mg
  side effect: methemoglobinemia
[2]; in vivo
  side effect: drowsiness

## CCCCN1CCCCC1C(=O)Nc1c(C)cccc1C (stereo not drawn) [bupivacaine]
[1]
  duration of effective action: 4 to 18 h

## CCCN(CC)C(CC)C(=O)Nc1c(C)cccc1C (stereo not drawn) [etidocaine]
[1]
  duration of effective action: 4 to 18 h

## CN1CCCC1c1cccnc1 (stereo not drawn) [Nicotine]
[3]
  molar ellipticity [θ] of drug alone, 30° C.: -21,400

## CC[C@@H]1C(=O)OC[C@@H]1Cc1cncn1C [Pilocarpine]
[3]
  ellipticity of drug alone: positive ellipticity
  molar ellipticity [θ] of drug alone, 30° C.: +5,450
[4]; [7]
  % Loss of Helix (30° C. to 35° C.): 20.7%
[4]; [8]
  [θ]30 - [θ]35: 720
[4]; [9]
  molar ellipticity [θ] at 222 nm, 30° C.: -3,590
  molar ellipticity [θ] at 222 nm, 35° C.: -2,280
[4]; Fresh AChE (Prep B) plus drug 1.33×10^-6 M, 222 nm
  [θ]30 - [θ]35: 800
[4]; [13]
  molar ellipticity [θ] at 222 nm, 30° C.: -11,300
  molar ellipticity [θ] at 222 nm, 35° C.: -10,500
[4]; [11]
  [θ]30 - [θ]35: 170
  [θ]38 - [θ]35: 780
[4]; [12]
  molar ellipticity [θ] at 222 nm, 30° C.: -4,490
  molar ellipticity [θ] at 222 nm, 35° C.: -4,320
  molar ellipticity [θ] at 222 nm, 38° C.: -3,540
[4]; Fresh AChE with drug, 222 nm
  % Loss of Helix (30° C. to 35° C.): 7.1%
  % Loss of Helix (35° C. to 40° C.): 17.5%
[4]; enzyme preparations more than one week old / not freshly prepared
  stabilization of helix in preparations not freshly prepared: not observed; also recorded: will not be protected
[4]; 222 nm
  stabilization of the alpha helix / prevention of the helical transition between 30° C. and 35° C.: appear to stabilize the helix
[4]; 222 nm, listed as pilocarpine
  stabilization of the alpha helix / prevention of the helical transition between 30° C. and 35° C.: prevent the helical transition
[4]
  temperature needed to elicit the helix-coil transition in presence of drug: Higher temperatures were necessary

## CCN(CC)CCOC(=O)c1ccc(N)cc1 [procaine]
[1]
  duration of effective action: 1 to 2 h

## O=S(=O)([O-])[O-].[Mg+2] [MgSO4]
AChE; AChE Prep E in 100 mM MgSO4, CD
  random coil at 195 nm: 35%
AChE; Prep E dialyzed against 100 mM MgSO4 for 12 hours
  AChE Qualitative Activity: 0
AChE; Prep E dialyzed against 100 mM MgSO4 for 12 hours, CD
  Helix 220 nm: 16 mm

## Cc1ccccc1N [ortho-toliudine]
[5]
  carcinogenicity: carcinogenic
[6]
  carcinogenicity: carcinogenic
